Data taken from patent US20100160335A1, “PYRIDAZINONE DERIVATIVE AND PDE INHIBITOR CONTAINING THE SAME AS ACTIVE INGREDIENT” (KYORIN PHARMACEUTICAL CO., LTD., priority 2007, published 2010).

How the values were obtained:
[1] = molecular target: T1, PDE3A catalytic domain (PDE3Acat) (Homo sapiens, UniProt Q14432); test: Phosphodiesterase inhibitory activity, PDE3 ([3H]cAMP, recombinant enzyme); assay type: biochemical; details: 30° C., 20 minutes, read-out: IC50(μmol/L) PDE3
T1 construct: made in house; host or cells: Sf9 insect cells (baculovirus, Bac-to-Bac / Gateway)
T1 sequence (Q14432 674-1093 limits assumed): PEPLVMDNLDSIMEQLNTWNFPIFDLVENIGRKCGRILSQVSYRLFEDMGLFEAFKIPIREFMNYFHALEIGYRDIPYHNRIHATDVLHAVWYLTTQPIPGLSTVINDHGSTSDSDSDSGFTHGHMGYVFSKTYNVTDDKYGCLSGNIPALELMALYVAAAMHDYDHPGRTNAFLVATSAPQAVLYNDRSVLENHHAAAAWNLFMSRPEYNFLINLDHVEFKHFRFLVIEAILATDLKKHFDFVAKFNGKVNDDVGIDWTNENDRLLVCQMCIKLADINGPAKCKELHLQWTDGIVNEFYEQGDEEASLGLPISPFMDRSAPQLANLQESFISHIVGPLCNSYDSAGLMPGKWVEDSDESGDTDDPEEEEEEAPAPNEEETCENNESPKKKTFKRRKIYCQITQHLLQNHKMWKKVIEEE

PDE4Bcat = molecular target: T2, PDE4Bcat (Homo sapiens, UniProt Q07343); test: Phosphodiesterase inhibitory activity, PDE4 ([3H]cAMP, recombinant enzyme); assay type: biochemical; details: 30° C., 20 minutes, read-out: IC50(μmol/L) PDE4
T2 construct: made in house; host or cells: Sf9 insect cells (baculovirus, Bac-to-Bac / Gateway)
T2 sequence (Q07343 330-659 limits assumed): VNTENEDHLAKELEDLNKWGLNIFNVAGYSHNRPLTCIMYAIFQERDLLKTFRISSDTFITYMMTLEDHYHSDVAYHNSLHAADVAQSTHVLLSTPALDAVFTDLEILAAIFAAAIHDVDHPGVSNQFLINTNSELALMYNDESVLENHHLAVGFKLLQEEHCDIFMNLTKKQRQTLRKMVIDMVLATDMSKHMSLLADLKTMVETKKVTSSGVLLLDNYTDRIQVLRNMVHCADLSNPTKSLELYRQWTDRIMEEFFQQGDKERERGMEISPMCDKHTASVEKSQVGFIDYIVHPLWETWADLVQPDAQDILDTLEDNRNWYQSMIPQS

CCc1ccc2c(-c3ccc(=O)n(CCCOc4ccc(C5=NNC(=O)C5(C)C)c(F)c4F)n3)ccc(OC)c2n1 [Example 327, 6-(2-Ethyl-8-methoxyquinolin-5-yl)-2-[3-[2,3-difluoro-4-(4,4-dimethyl-5-oxo-4,5-dihydro-1H-pyrazol-3-yl)phenoxy]propyl]-2H-pyridazin-3-one]
IC50 [1]: 1 to 10 µmol/L | IC50 (PDE4Bcat): 0.1 to 1 µmol/L

CCc1ccc2c(-c3ccc(=O)n(CCCCOc4ccc(C5=NNC(=O)CC5C)cc4F)n3)ccc(OC)c2n1 (single isomer, unassigned; (-)) [Example 329, (−)-6-(2-Ethyl-8-methoxyquinolin-5-yl)-2-[4-[2-fluoro-4-(4-methyl-6-oxo-1,4,5,6-tetrahydropyridazin-3-yl)phenoxy]butyl]-2H-pyridazin-3-one]
IC50 [1]: < 0.1 µmol/L | IC50 (PDE4Bcat): < 0.1 µmol/L

COc1ccc(-c2ccc(=O)n(CCCCOc3ccc(C4=NNC(=O)CC4C)c(F)c3F)n2)n2cc(C(F)(F)F)nc12 (centres unmarked) [Example 336, 2-[4-[2,3-Difluoro-4-(4-methyl-6-oxo-1,4,5,6-tetrahydropyridazin-3-yl)phenoxy]butyl]-6-(8-methoxy-2-trifluoromethylimidazo[1,2-a]pyridin-5-yl)-2H-pyridazin-3-one]
IC50 [1]: < 0.1 µmol/L | IC50 (PDE4Bcat): 0.1 to 1 µmol/L

CCc1ccc2c(-c3ccc(=O)n(CCCCOc4ccc(C5=NNC(=O)CC5)cc4)n3)ccc(OC)c2n1 [Example 281, 6-(2-Ethyl-8-methoxyquinolin-5-yl)-2-[4-[4-(6-oxo-1,4,5,6-tetrahydropyridazin-3-yl)phenoxy]butyl]-2H-pyridazin-3-one]
IC50 [1]: 0.1 to 1 µmol/L | IC50 (PDE4Bcat): 0.1 to 1 µmol/L

COc1ccc(-c2ccc(=O)n(CCCCOc3ccc(C4=NNC(=O)C4(C)C)c(F)c3F)n2)c2sc(C(F)(F)F)nc12 [Example 309, 2-[4-[2,3-Difluoro-4-(4,4-dimethyl-5-oxo-4,5-dihydro-1H-pyrazol-3-yl)phenoxy]butyl]-6-(4-methoxy-2-trifluoromethylbenzothiazol-7-yl)-2H-pyridazin-3-one]
IC50 [1]: < 0.1 µmol/L | IC50 (PDE4Bcat): < 0.1 µmol/L

COc1ccc(-c2ccc(=O)n(CCCCOc3ccc(C4=NNC(=O)CC4)c(F)c3F)n2)c2sc(C(F)(F)F)nc12 [Example 308, 2-[4-[2,3-Difluoro-4-(6-oxo-1,4,5,6-tetrahydropyridazin-3-yl)phenoxy]butyl]-6-(4-methoxy-2-trifluoromethylbenzothiazol-7-yl)-2H-pyridazin-3-one]
IC50 [1]: < 0.1 µmol/L | IC50 (PDE4Bcat): < 0.1 µmol/L

CCc1ccc2c(-c3ccc(=O)n(CCCCOc4ccc(C5=NNC(=O)CC5C)cc4F)n3)ccc(OC)c2n1 (single isomer, unassigned; (+)) [Example 328, (+)-6-(2-Ethyl-8-methoxyquinolin-5-yl)-2-[4-[2-fluoro-4-(4-methyl-6-oxo-1,4,5,6-tetrahydropyridazin-3-yl)phenoxy]butyl]-2H-pyridazin-3-one]
IC50 [1]: < 0.1 µmol/L | IC50 (PDE4Bcat): 0.1 to 1 µmol/L

COc1ccc(-c2ccc(=O)n(CCCCOc3ccc(C4=NNC(=O)CC4C)c(F)c3F)n2)c2cc(C(F)(F)F)sc12 (centres unmarked) [Example 330, 2-[4-[2,3-Difluoro-4-(4-methyl-6-oxo-1,4,5,6-tetrahydropyridazin-3-yl)phenoxy]butyl]-6-(7-methoxy-2-trifluoromethylbenzo[b]thiophen-4-yl)-2H-pyridazin-3-one]
IC50 [1]: < 0.1 µmol/L | IC50 (PDE4Bcat): 1 to 10 µmol/L

CCc1ccc2c(C3=NN(CCCCOc4ccc(C5=NNC(=O)C5(C)C)cc4F)C(=O)CC3C)ccc(OC)c2n1 (centres unmarked) [Example 302, 6-(2-Ethyl-8-methoxyquinolin-5-yl)-5-methyl-2-[4-[2-fluoro-4-(4,4-dimethyl-5-oxo-4,5-dihydro-1H-pyrazol-3-yl)phenoxy]butyl]-4,5-dihydro-2H-pyridazin-3-one]
IC50 [1]: 1 to 10 µmol/L | IC50 (PDE4Bcat): < 0.1 µmol/L

COc1ccc(-c2ccc(=O)n(CCCCOc3ccc(C4=NNC(=O)CC4)c(F)c3F)n2)c2cc(C(F)(F)F)oc12 [Example 274, 2-[4-[2,3-Difluoro-4-(6-oxo-1,4,5,6-tetrahydropyridazin-3-yl)phenoxy]butyl]-6-(7-methoxy-2-trifluoromethylbenzofuran-4-yl)-2H-pyridazin-3-one]
IC50 [1]: < 0.1 µmol/L | IC50 (PDE4Bcat): < 0.1 µmol/L
